Measurements from patent publication US8648116B2, “Derivatives of N-(arylamino) sulfonamides including polymorphs as inhibitors of MEK as well as compositions, methods of use and methods for preparing the same” (Ardea Biosciences, Inc., priority 2005, dated 2014).
Marks after values point to notes of the source that are not given here.

Tests used:
A375 melanoma tumors = experiment: Anti-tumor xenograft activity, TGI and TGD (Example 94); assay type: in vivo, nu/nu mice
Method: (§1) Human tumors were implanted in nu/nu mice. Compound A was administered orally for 14 days once tumors were approximately 100 mm^3 in size. Tumor growth inhibition (TGI) was determined after 14 days of treatment as the reduction in the size of tumors in treated groups versus vehicle controls. The time to endpoint (TTE) was calculated as the time for the tumor to reach the specified endpoint volume or the last day of the study, whichever came first. Treatment outcome was determined from percent tumor growth delay (% TGD), defined as the percent increase in median TTE of treated versus vehicle-treated control mice. Animals were also monitored for regression responses. Levels of pERK in tumors and brain were determined by Western blots and correlated with plasma levels of Compound A for the pharmacodynamic/pharmacokinetic study. A number of tumor models were evaluated with different doses and dosing regimens. […] The effect of different dosing regimens was evaluated in A375 xenografts.
(§2) Female nu/nu mice were implanted with A375 Melanoma, Colo205 Colon Tumor, A431 Epidermoid Tumor or HT-29 Colon Tumor cells, which were allowed to grow to 100-200 mm^3. Compound A or vehicle was administered orally (25 mg/kg, 50 mg/kg or 100 mg/kg), once a day, for 14 days.
Tumor Growth Inhibition for the groups treated with 25 mg/kg Compound A were calculated for the indicated tumor xenografts. Tumor Growth Inhibition was measured at the end of once daily dosing for 14 days and calculated according to:
Female nu/nu mice were implanted with A375 tumor cells, which were allowed to grow to 100-200 mm^3. Compound. […] Tumor Growth Inhibition was measured at the end of once daily dosing for 14 days and calculated according to: […]

A431 epidermoid cells = experiment: Anchorage-independent growth inhibition (MTS, 7 days, non-binding plates); assay type: cell-based; conditions: Homo sapiens, A-431, 168 h, BRAF Normal, read-out: Anchorage-Independent GI50 (nM ± sd)
[1] = tested on: Colo205 colon cancer tumors; experiment: Anti-tumor xenograft activity, TGI and TGD (Example 94); assay type: in vivo, nu/nu mice
Method: as §1, §2
(§3) Tumor Growth Inhibition for the groups treated with 25 mg/kg Compound A were calculated for the indicated tumor xenografts. Tumor Growth Inhibition was measured at the end of once daily dosing for 14 days and calculated according to: […]

A431 epidermoid tumors = experiment: as above; assay type: in vivo, nu/nu mice
Method: as §1, §2, §3

HT29 colon cancer tumors = experiment: Anti-tumor xenograft activity, TGI (Example 94); assay type: in vivo, nu/nu mice; conditions: 25 mg/kg QD oral, 14 days
Method: as §1
Female nu/nu mice were implanted with A375 Melanoma, Colo205 Colon Tumor, A431 Epidermoid Tumor or HT-29 Colon Tumor cells, which were allowed to grow to 100-200 mm^3. […]
as §3

[2] = Pharmacokinetic parameters in Balb/c mice (Example 94D); assay type: in vivo
Method: Pharmacokinetic parameters were obtained from dosing Balb/c mice with 25 mg/kg Compound A and extrapolating values for the lower dose groups and shown in the table below.

[3] = Concentration-time profiles after a single dose of capsules; set-up: species or system human cancer patients; conditions: human, in vivo, oral, capsules of example 95A
[4] = tested on: carrageenan-induced hind paw edema; experiment: Carrageenan-induced paw edema (CPE); assay type: in vivo, Sprague-Dawley rats; conditions: 6, 20 & 60 mg/kg orally 2 hr before carrageenan; all dose groups
Method: Compound A (6, 20 & 60 mg/kg) or indomethacin (3 mg/kg) were administered orally 2 hr prior to injection of 1% suspension of carrageenan into the right hind foot pad of male Sprague-Dawley rats (N-6 per treatment group). The hind paw edema was measured 3 hr later by assessing paw volume by plethysmography. Reduction of hind paw edema by 30% or greater indicates significant acute anti-inflammatory activity. Indomethacin (Indo) was used as a positive control drug.

A375 cells [5] = experiment: Evaluation of cell cycle arrest (propidium iodide, flow cytometry); assay type: cell-based, human; conditions: 24 hr
Method: A375 cells were plated in 96-well microplates at 10,000 cells/200 μl/well. […] After another 24 hr, cells were trypsinized, fixed in 200 μl Prefer (Anatech, Battle Creek, Mich.), and stored at 4° C. overnight. Cells were then rinsed in PBS, permeabilized and stained in 0.1% Triton X-100, 200 μg/ml DNase-free RNase, and […] propidium iodide (Molecular Probes, Sunnyvale, Calif.), and analyzed on the Guava PCA-96 (Guava Technologies, Foster City, Calif.). Data were analyzed using ModFit LT (version 3.0, Verity, Topsham, Me.).

[6] = tested on: BxPC3 pancreatic adenocarcinoma cells; experiment: Anchorage-dependent growth inhibition (ATP content, 48 hr); assay type: cell-based, human; conditions: BxPC3, 48 hr
[7] = tested on: gastric adenocarcinoma AGS cells; experiment: Cell proliferation assay (CellTiterGlo, 3 days and 6 days); assay type: cell-based, human; conditions: 3 days and 6 days exposure
Method: Human gastric adenocarcinoma AGS cells were obtained from ATCC (Manassas, Va.). […] For cell proliferation experiments, cells were plated in white 96-well plates with clear bases at 3000 cells/100 μl/well. […] The ATP level for each dose was determined in triplicate using independent wells.

MDA-MB231 cells = experiment: Anchorage-independent growth inhibition (MTS, 7 days); assay type: cell-based, human
A375 cells [8] = experiment: Cytotoxic lysis by adenylate kinase (AK) release, 48 hr; assay type: cell-based, human
Method: Cell supernatants were analyzed for cytotoxic lysis by measuring adenylate kinase (AK) release. […] The lack of AK release was confirmed for all cell lines tested.
100% viability (ATP assay) was determined in vehicle only control wells.

[9] = 2.5 mg/kg, extrapolated from 25 mg/kg in Balb/c mice
[10] = 5 mg/kg, extrapolated from 25 mg/kg in Balb/c mice
[11] = 10 mg/kg, extrapolated from 25 mg/kg in Balb/c mice

In the case of `COc1cc(F)c(F)c(Nc2ccc(I)cc2F)c1NS(=O)(=O)C1(C[C@H](O)CO)CC1` [Compound A], the “% TGI” value (A375 melanoma tumors; A375 Melanoma xenograft, 25 mg/kg QD oral, 14 days, range from 2 separate studies) is reported as 52-72** %, the “% TGD, significance” value (A375 melanoma tumors; A375 melanoma tumors, 25 or 50 mg/kg once daily (QD)) is reported as “statistically significant” and the “% TGI” value (A375 melanoma tumors; A375 xenografts, 12.5 mg/kg BID) is reported as 79.5%. The “% TGI” value (A375 melanoma tumors; A375 xenografts, 25 mg/kg BID) was 110.1%, the “% TGD” value (A375 melanoma tumors; A375 xenografts, 25 mg/kg QD) was 143% and the “% TGI” value (A375 melanoma tumors; A375 xenografts, 25 mg/kg QD) was 51.7%. The “% TGD” value (A375 melanoma tumors; A375 xenografts, 50 mg/kg QD) was 233%, the “% TGI” value (A375 melanoma tumors; A375 xenografts, 50 mg/kg QD) was 69.9% and the “% TGD” value (A375 melanoma tumors; A375 xenografts, 100 mg/kg orally once every two days) was 91%. For the same compound, the GI50 (A431 epidermoid cells) was 65 ± 19 nM, the “% TGI” value ([1]; Colo205 Colon xenograft, 25 mg/kg QD oral, 14 days, range from 2 separate studies) was 70-123** % and the “% TGD, significance” value ([1]; Colo205 colon cancer tumors, 25 or 50 mg/kg once daily (QD)) was “statistically significant”. For the same compound, the “% TGI” value (A431 epidermoid tumors; A431 Epidermoid xenograft, 25 mg/kg QD oral, 14 days) was 67%, the “% TGD, significance” value (A431 epidermoid tumors; A431 epidermoid tumors, 25 or 50 mg/kg once daily (QD)) was “statistically significant” and the “% TGI” value (HT29 colon cancer tumors) was 56%. For the same compound, the AUC [2, 9] was 5.5 µg·h/mL, the Cmax [2, 9] was 990 ng/mL and the Cmin [2, 9] was 3 ng/mL. The AUC [2, 10] was 11.0 µg·h/mL, the Cmax [2, 10] was 1970 ng/mL and the Cmin [2, 10] was 6 ng/mL. For the same compound, the AUC [2, 11] was 22.0 µg·h/mL, the Cmax [2, 11] was 3940 ng/mL and the Cmin [2, 11] was 12 ng/mL. It also gave a Cmin ([2]; 25 mg/kg, Balb/c mice) of 29 ng/mL, an AUC ([2]; mouse, in vivo, oral, 25 mg/kg, Balb/c mice, read-out: AUC) of 55 µg·h/mL and a Cmax ([2]; mouse, in vivo, oral, 25 mg/kg, Balb/c mice, read-out: Cmax) of 9850 ng/mL. It also gave a Cmax ([3]; 2 mg, 2 mg dose, Day 35) of 0.202 ng/mL, a Tmax ([3]; 2 mg, 2 mg dose, Day 35) of 2 h and a Tmax ([3]; 4 mg, 4 mg dose, Day 1) of 1.5 h. The Cmax ([3]; 4 mg, 4 mg dose, Day 35) was 0.544 ng/mL, the Tmax ([3]; 4 mg, 4 mg dose, Day 35) was 1 h and the Cmax ([3]; 10 mg, 10 mg dose, Day 35) was 1.57 ng/mL. It also gave a Cmax ([3]; 20 mg, 20 mg dose, Day 35) of 3.28 ng/mL, an AUC ([3]; 2 mg dose, Day 35) of 0.00207 µg·h/mL and an AUC ([3]; 4 mg dose, Day 35) of 0.00512 µg·h/mL. The AUC ([3]; 10 mg dose, Day 35) was 0.0143 µg·h/mL, the AUC ([3]; 20 mg dose, Day 35) was 0.0295 µg·h/mL and the “hind paw edema (paw volume)” value [4] was “significant anti-inflammatory activity”.
For `COc1cc(F)c(F)c(Nc2ccc(I)cc2F)c1NS(=O)(=O)C1(C[C@H](O)CO)CC1`, the “effect on cell cycle progression” value (A375 cells [5]) was “arrest in the G1 phase of the cell cycle”, the GI50 [6] was greater than 1 µM and the “proliferation of AGS cell line” value [7] was “inhibits the proliferation”. The GI50 (MDA-MB231 cells; MDA-MB231, anchorage independent) was 0.081 µM, the “anchorage independent growth (FIG. 12C)” value (MDA-MB231 cells; MDA-MB231 cells) was “inhibition of MDA-M8231 cells” and the “AK, Cell killing, % Control” value (A375 cells [8]; 1 uM) was 4%. The “cytotoxic cell lysis (AK release)” value (A375 cells [8]; 100% cell killing with 20 μM tamoxifen) was “lack of cytotoxic cell lysis”.
